Experimental data as given in patent US12570642B2, “GLP-IR modulating compounds” (Gilead Sciences, Inc., priority 2021, dated 2026).

Target: GLP-1R (Homo sapiens, UniProt P43220)
Assay: GLP-1R Activation - cAMP Assay
Type: cell-based
Settings: each compound run on one of the two cAMP assays (Assay 1 or Assay 2, not specified)
How it was run: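 cAMP rise read by HTRF after 30 min agonist exposure (10-point titration, 37 °C) in HBSS/20 mM Hepes/0.1% BSA, following 1 h pre-incubation. Cells: stable GLP-1R CHO line, 1,000/well, seeded overnight. Sigmoidal fit of response vs log concentration gives EC50.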

[1] = cAMP increase in CHO cells stably expressing GLP-1R

GLP-1R, sequence (P43220 24-463): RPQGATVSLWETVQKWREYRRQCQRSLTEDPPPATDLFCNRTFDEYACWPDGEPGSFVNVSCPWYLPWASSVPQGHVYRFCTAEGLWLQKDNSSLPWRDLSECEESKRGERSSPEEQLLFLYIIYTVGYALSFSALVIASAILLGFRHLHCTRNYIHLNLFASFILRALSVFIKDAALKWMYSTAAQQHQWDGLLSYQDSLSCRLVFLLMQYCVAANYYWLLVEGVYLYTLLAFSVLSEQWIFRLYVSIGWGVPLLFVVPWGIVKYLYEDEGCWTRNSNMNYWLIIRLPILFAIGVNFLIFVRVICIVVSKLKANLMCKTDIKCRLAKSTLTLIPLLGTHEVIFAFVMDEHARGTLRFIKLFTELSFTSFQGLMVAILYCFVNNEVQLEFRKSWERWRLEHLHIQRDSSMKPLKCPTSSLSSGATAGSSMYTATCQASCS

Structure (SMILES) | EC50 [1] [nM] | EC50 ([…]) [nM]
COCCn1c(Cc2cc(F)c(-c3cccc(OCc4ccc(-c5ccc(C)nc5)cc4F)n3)cc2F)nc2ccc(C(=O)O)cc21 [Example 105, 2-(2,5-difluoro-4-(6-((2-fluoro-4-(6-methylpyridin-3-yl)benzyl)oxy)pyridin-2-yl)benzyl)-1-(2-methoxyethyl)-1H-benzo[d]imidazole-6-carboxylic Acid] | 1.55 | –
CO[C@@H]1COC[C@@H]1n1c(Cc2cc(F)c(-c3cccc(OCc4ccc(C#N)cc4F)n3)cc2F)nc2ccc(C(=O)O)cc21 (single isomer, unassigned) [Example 275] | 0.168 | –
Cc1ccc(COc2cccc(-c3cc(F)c(Cc4nc5ccc(C(=O)O)cc5n4C4COCC4(C)C)cc3F)n2)c(Cl)n1 (stereo not drawn) [Example 286, 2-(4-(6-((2-chloro-6-methylpyridin-3-yl)methoxy)pyridin-2-yl)-2,5-difluorobenzyl)-1-(4,4-dimethyltetrahydrofuran-3-yl)-1H-benzo[d]imidazole-6-carboxylic acid] | 0.099 | –
COCCn1c(Cc2cc(F)c(-c3cccc(OCc4ccc(C#N)cc4F)n3)cc2F)nc2c(-c3cncnc3)cc(C(=O)O)cc21 [Example 55] | 25.8 | –
CO[C@H](C)Cn1c(Cc2cc(F)c(-c3cccc(OCc4ccc(-n5ccnn5)nc4)n3)cc2F)nc2c(F)cc(C(=O)O)cc21 [Example 352, (R)-2-(4-(6-((6-(1H-1,2,3-triazol-1-yl)pyridin-3-yl)methoxy)pyridin-2-yl)-2,5-difluorobenzyl)-4-fluoro-1-(2-methoxypropyl)-1H-benzo[d]imidazole-6-carboxylic acid] | 0.535 | –
COCCn1c(Cc2c(F)cc(-c3cccc(OCc4ccc(Cl)cc4)n3)c(F)c2F)nc2c(F)cc(C(=O)O)cc21 [Example 377, 2-(4-(6-((4-chlorobenzyl)oxy)pyridin-2-yl)-2,3,6-trifluorobenzyl)-4-fluoro-1-(2-methoxyethyl)-1H-benzo[d]imidazole-6-carboxylic acid] | 0.188 | –
COCCn1c(Cc2cc(F)c(-c3cccc(OCc4ccc(OCC(F)(F)F)nc4)n3)cc2F)nc2ccc(C(=O)O)cc21 [Example 35, 2-(2,5-difluoro-4-(6-((6-(2,2,2-trifluoroethoxy)pyridin-3-yl)methoxy)pyridin-2-yl)benzyl)-1-(2-methoxyethyl)-1H-benzo[d]imidazole-6-carboxylic Acid] | 2.67 | –
CO[C@H]1CCOC[C@H]1n1c(Cc2cc(F)c(-c3cccc(OCc4ccc(C#N)cc4F)n3)cc2F)nc2ccc(C(=O)O)cc21 [Example 70, 2-(4-(6-((4-cyano-2-fluorobenzyl)oxy)pyridin-2-yl)-2,5-difluorobenzyl)-1-((3R,4S)-4-methoxytetrahydro-2H-pyran-3-yl)-1H-benzo[d]imidazole-6-carboxylic Acid] | 0.26 | –
CC1(C)COC[C@H]1n1c(Cc2cc(F)c(-c3cccc(OCc4ccc(C#N)cc4F)n3)cc2Cl)nc2ccc(C(=O)O)cc21 [Example 257, (S)-2-(2-chloro-4-(6-((4-cyano-2-fluorobenzyl)oxy)pyridin-2-yl)-5-fluorobenzyl)-1-(4,4-dimethyltetrahydrofuran-3-yl)-1H-benzo[d]imidazole-6-carboxylic acid] | 0.064 | –
CC1(C)COC[C@H]1n1c(Cc2cc(F)c(-c3ccnc(OCc4ccc(C#N)cc4F)n3)cc2F)nc2ccc(C(=O)O)cc21 [Example 198, (S)-2-(4-(2-((4-cyano-2-fluorobenzyl)oxy)pyrimidin-4-yl)-2,5-difluorobenzyl)-1-(4,4-dimethyltetrahydrofuran-3-yl)-1H-benzo[d]imidazole-6-carboxylic acid] | 0.508 | –
COCCn1c(Cc2cc(F)c(-c3cccc(OCc4ccc(-c5cnn(C)c5)nc4)n3)cc2F)nc2ccc(C(=O)O)cc21 [Example 108, 2-(2,5-difluoro-4-(6-((6-(1-methyl-1H-pyrazol-4-yl)pyridin-3-yl)methoxy)pyridin-2-yl)benzyl)-1-(2-methoxyethyl)-1H-benzo[d]imidazole-6-carboxylic Acid] | 3.28 | –
CC1(C)COC[C@H]1n1c(Cc2cc(F)c(-c3cccc(OCc4ccc(-n5ccnn5)nc4)n3)cc2F)nc2ccc(C(=O)O)cc21 [Example 254, (S)-2-(4-(6-((6-(1H-1,2,3-triazol-1-yl)pyridin-3-yl)methoxy)pyridin-2-yl)-2,5-difluorobenzyl)-1-(4,4-dimethyltetrahydrofuran-3-yl)-1H-benzo[d]imidazole-6-carboxylic acid] | 0.088 | –
CC1(C)COC[C@H]1n1c(Cc2c(F)cc(-c3ccc(F)c(OCc4ccc(Cl)cc4F)n3)c(F)c2F)nc2c(F)cc(C(=O)O)cc21 [Example 336, (S)-2-(4-(6-((4-chloro-2-fluorobenzyl)oxy)-5-fluoropyridin-2-yl)-2,3,6-trifluorobenzyl)-1-(4,4-dimethyltetrahydrofuran-3-yl)-4-fluoro-1H-benzo[d]imidazole-6-carboxylic acid] | 0.016 | –
COC[C@H]1COC[C@H]1n1c(Cc2cc(F)c(-c3cccc(OCc4ccc(Cl)cc4F)n3)cc2F)nc2ccc(C(=O)O)cc21 [Example 542, 2-(4-(6-((4-chloro-2-fluorobenzyl)oxy)pyridin-2-yl)-2,5-difluorobenzyl)-1-((3S,4S)-4-(methoxymethyl)tetrahydrofuran-3-yl)-1H-benzo[d]imidazole-6-carboxylic acid] | 0.033 | –
COc1cc(-c2cnn(C)c2)ncc1COc1cccc(-c2cc(F)c(Cc3nc4ccc(C(=O)O)cc4n3C[C@@H](C)OC)cc2F)n1 [Example 91, (R)-2-(2,5-difluoro-4-(6-((4-methoxy-6-(1-methyl-1H-pyrazol-4-yl)pyridin-3-yl)methoxy)pyridin-2-yl)benzyl)-1-(2-methoxypropyl)-1H-benzo[d]imidazole-6-carboxylic Acid] | 2.06 | –
CC1(C)COC[C@H]1n1c(Cc2ccc(-c3cccc(OCc4ccc(Cl)cc4F)n3)cc2F)nc2ccc(C(=O)O)cc21 [Example 331, (S)-2-(4-(6-((4-chloro-2-fluorobenzyl)oxy)pyridin-2-yl)-2-fluorobenzyl)-1-(4,4-dimethyltetrahydrofuran-3-yl)-1H-benzo[d]imidazole-6-carboxylic acid] | 0.218 | –
C#Cc1ccc(COc2cccc(-c3cc(F)c(Cc4nc5ccc(C(=O)O)cc5n4CCOC)cc3F)n2)c(F)c1 [Example 111] | 1.46 | –
C[C@@H]1COC[C@@H]1n1c(Cc2cc(F)c(-c3cccc(OCc4ccc(C#N)cc4F)n3)cc2F)nc2ccc(C(=O)O)cc21 (racemic) [Example 505, 2-(4-(6-((4-cyano-2-fluorobenzyl)oxy)pyridin-2-yl)-2,5-difluorobenzyl)-1-((3R,4S)-4-methyltetrahydrofuran-3-yl)-1H-benzo[d]imidazole-6-carboxylic acid] | 0.043 | –
CC1(C)COC[C@H]1n1c(Cc2ccc(-c3ccc(F)c(OCc4ccc(C#N)cc4F)n3)cc2F)nc2ccc(C(=O)O)cc21 [Example 330] | 0.011 | –
N#Cc1ccc(COc2cccc(-c3cc(F)c(Cc4nc5ccc(C(=O)O)cc5n4[C@@H]4COC[C@H]4C4CC4)cc3F)n2)c(F)c1 [Example 190, 2-(4-(6-((4-cyano-2-fluorobenzyl)oxy)pyridin-2-yl)-2,5-difluorobenzyl)-1-((3S,4S)-4-cyclopropyltetrahydrofuran-3-yl)-1H-benzo[d]imidazole-6-carboxylic acid] | 0.061 | –
CC1(C)COC[C@@H]1n1c(Cc2c(F)cc(-c3cccc(OCc4ccc(C#N)cc4F)n3)c(F)c2F)nc2c(F)cc(C(=O)O)cc21 [Example 123] | 0.528 | –
Cc1cc(Cc2nc3c(F)cc(C(=O)O)cc3n2[C@@H]2COCC2(C)C)c(F)cc1-c1cccc(OCc2ccc(C#N)cc2F)n1 [Example 208, (S)-2-(4-(6-((4-cyano-2-fluorobenzyl)oxy)pyridin-2-yl)-2-fluoro-5-methylbenzyl)-1-(4,4-dimethyltetrahydrofuran-3-yl)-4-fluoro-1H-benzo[d]imidazole-6-carboxylic acid] | 0.249 | –
CC1(C)COC[C@H]1n1c(Cc2cc(F)c(-c3ccc(F)c(OCc4ccc(Cl)cc4F)c3)cc2F)nc2ccc(C(=O)O)cc21 [Example 509, (S)-2-((3′-((4-chloro-2-fluorobenzyl)oxy)-2,4′,5-trifluoro-[1,1′-biphenyl]-4-yl)methyl)-1-(4,4-dimethyltetrahydrofuran-3-yl)-1H-benzo[d]imidazole-6-carboxylic acid] | 0.144 | –
COC(=O)N1C[C@@H](n2c(Cc3cc(F)c(-c4cccc(OCc5ccc(C#N)cc5F)n4)cc3F)nc3ccc(C(=O)O)cc32)[C@H](OC)C1 [Example 86, 2-(4-(6-((4-cyano-2-fluorobenzyl)oxy)pyridin-2-yl)-2,5-difluorobenzyl)-1-((3R,4R)-4-methoxy-1-(methoxycarbonyl)pyrrolidin-3-yl)-1H-benzo[d]imidazole-6-carboxylic Acid] | – | 140
COCCn1c(Cc2c(F)cc(-c3ccc(F)c(OCc4ccc(Cl)cc4F)n3)c(F)c2F)nc2c(F)cc(C(=O)O)cc21 [Example 485, 2-(4-(6-((4-chloro-2-fluorobenzyl)oxy)-5-fluoropyridin-2-yl)-2,3,6-trifluorobenzyl)-4-fluoro-1-(2-methoxyethyl)-1H-benzo[d]imidazole-6-carboxylic acid] | 0.203 | –
COC[C@H]1COC[C@H]1n1c(Cc2cc(F)c(-c3ccc(F)c(OCc4ccc(Cl)cc4F)c3)cc2F)nc2ccc(C(=O)O)cc21 [Example 559, 2-((3′-((4-chloro-2-fluorobenzyl)oxy)-2,4′,5-trifluoro-[1,1′-biphenyl]-4-yl)methyl)-1-((3S,4S)-4-(methoxymethyl)tetrahydrofuran-3-yl)-1H-benzo[d]imidazole-6-carboxylic acid] | 0.195 | –
COCCn1c(Cc2cc(F)c(-c3cccc(OCc4ccc(C(F)(F)F)nc4C)n3)cc2F)nc2ccc(C(=O)O)cc21 [Example 33, 2-(2,5-difluoro-4-(6-((2-methyl-6-(trifluoromethyl)pyridin-3-yl)methoxy)pyridin-2-yl)benzyl)-1-(2-methoxyethyl)-1H-benzo[d]imidazole-6-carboxylic Acid] | 2.58 | –
